# In patent US20240092835A1, “NOVEL PEPTIDES CAPABLE OF ALTERING NK CELL ACTIVITY” (Massachusetts Institute of Technology, priority 2022, published 2024):
# Where no end group is shown, it is not given here.
# Experiments:
# NKG2A+/NKG2C− NK cells = assay: NK cell activation markers in NKG2A+/NKG2C- NK cells incubated with peptide and K562 expressing HLA-E (inhibition); type: cell-based, human; conditions: for effect on NKG2A+/NKG2C− NK cell inhibition (in words): K562 expressing HLA-E, CD107a, IFNG, TNF, CCL3; for percentage of CCL3+ NK cells / percentage of CD107a+ NK cells / percentage of IFNG+ NK cells / percentage of TNF+ NK cells: NKG2A+/NKG2C- NK cells, K562/HLA-E
# Method in brief: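 Percent of NK cells positive for cell-surface markers was measured after exposure to K562 targets expressing HLA-E and loaded with human- or HCMV-proteome-derived peptides. A decrease means inhibition, an increase activation; NKG2A−/NKG2C− cells served as controls.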
# CD94/NKG2A = CD94/NKG2A (Homo sapiens, UniProt P26715+Q13241); assay: Steady-state surface plasmon resonance of peptide-HLA-E complex with CD94/NKG2A; type: binding; conditions: for Binding of peptide-HLA-E complexes to CD94/NKG2A normalized to a theoretical Rmax: steady-state SPR
# Procedure: Binding affinity of novel peptides linked to HLA-E was determined using surface plasmon resonance (SPR), a methodology used to study protein-protein interactions (Tables 15-19). The peptide-HLA-E complex (generated as a single chain trimer) was immobilized on the sensor chip surface and CD94/NKG2A or CD94/NKG2C were flowed over. Steady-state surface plasmon resonance experiments were performed with a Biacore T200 instrument. CD94/NKG2x in HBS-EP+ buffer was injected as analyte in a concentration range of 0.1 μM to 102.4 μM and flow rate of 10 μL/min at 25° C. Data was fit with Prism 9.4 (GraphPad Software Inc; San Diego CA) to a “one site, specific binding” model. Series S CM5 chips were coupled to neutravidin and utilized. Biotinylated pMHC was immobilized at approximately 400 RU. KD values calculated by Biacore software are reported. Rmax, fit values were calculated by Biacore software. Rmax, theoretical values were calculated using the analyte/ligand mass ratio (0.66) multiplied by the amount of ligand coupled to the chip.
# Sequence of CD94/NKG2A (P26715 94-233 limits assumed): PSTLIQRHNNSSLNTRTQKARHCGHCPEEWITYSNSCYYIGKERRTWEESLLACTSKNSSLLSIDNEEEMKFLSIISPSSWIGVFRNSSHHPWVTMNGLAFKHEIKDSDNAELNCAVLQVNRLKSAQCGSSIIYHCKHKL
# Sequence of CD94/NKG2A (Q13241 32-179 limits assumed): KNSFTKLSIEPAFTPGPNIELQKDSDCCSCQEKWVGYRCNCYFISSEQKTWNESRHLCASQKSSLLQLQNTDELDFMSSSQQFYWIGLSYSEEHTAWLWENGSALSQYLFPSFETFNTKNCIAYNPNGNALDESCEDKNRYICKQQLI
sequence,measurement,setting,value
"TAPARTMFL [human13, TAPARTMFL]",effect on NKG2A+/NKG2C− NK cell inhibition (in words),NKG2A+/NKG2C− NK cells; listed as SEQ ID NO. 5,no or minimal effect
same,effect on NKG2A+/NKG2C− NK cell inhibition (in words),NKG2A+/NKG2C− NK cells; listed as h13,no effect
same,percentage of CCL3+ NK cells,NKG2A+/NKG2C− NK cells; Trial 1,52.5%
same,percentage of CD107a+ NK cells,NKG2A+/NKG2C− NK cells; Trial 1,31.2%
same,percentage of IFNG+ NK cells,NKG2A+/NKG2C− NK cells; Trial 1,13%
same,percentage of TNF+ NK cells,NKG2A+/NKG2C− NK cells; Trial 1,3.99%
same,percentage of CCL3+ NK cells,NKG2A+/NKG2C− NK cells; Trial 2,75.9%
same,percentage of CD107a+ NK cells,NKG2A+/NKG2C− NK cells; Trial 2,50.6%
same,percentage of IFNG+ NK cells,NKG2A+/NKG2C− NK cells; Trial 2,30.8%
same,percentage of TNF+ NK cells,NKG2A+/NKG2C− NK cells; Trial 2,13.8%
same,percentage of CCL3+ NK cells,NKG2A+/NKG2C− NK cells; Trial 3,52.6%
same,percentage of CD107a+ NK cells,NKG2A+/NKG2C− NK cells; Trial 3,44.4%
same,percentage of IFNG+ NK cells,NKG2A+/NKG2C− NK cells; Trial 3,31.7%
same,percentage of TNF+ NK cells,NKG2A+/NKG2C− NK cells; Trial 3,17%
same,percentage of CCL3+ NK cells,NKG2A+/NKG2C− NK cells; Trial 4,47.3%
same,percentage of CD107a+ NK cells,NKG2A+/NKG2C− NK cells; Trial 4,37.6%
same,percentage of IFNG+ NK cells,NKG2A+/NKG2C− NK cells; Trial 4,21.7%
same,percentage of TNF+ NK cells,NKG2A+/NKG2C− NK cells; Trial 4,12.6%
same,percentage of CCL3+ NK cells,NKG2A+/NKG2C− NK cells; Trial 5,48.9%
same,percentage of CD107a+ NK cells,NKG2A+/NKG2C− NK cells; Trial 5,32.2%
same,percentage of IFNG+ NK cells,NKG2A+/NKG2C− NK cells; Trial 5,16.9%
same,percentage of TNF+ NK cells,NKG2A+/NKG2C− NK cells; Trial 5,7.45%
same,percentage of CCL3+ NK cells,NKG2A+/NKG2C− NK cells; Trial 6,39.3%
same,percentage of CD107a+ NK cells,NKG2A+/NKG2C− NK cells; Trial 6,28.2%
same,percentage of IFNG+ NK cells,NKG2A+/NKG2C− NK cells; Trial 6,8.81%
same,percentage of TNF+ NK cells,NKG2A+/NKG2C− NK cells; Trial 6,5.68%
same,binding of peptide-HLA-E complex to CD94/NKG2A normalized to a fitted Rmax,CD94/NKG2A; CD94/NKG2A concentration 0 μM,0.010
same,binding of peptide-HLA-E complex to CD94/NKG2A normalized to a fitted Rmax,CD94/NKG2A; CD94/NKG2A concentration 0.1 μM,0.024
same,binding of peptide-HLA-E complex to CD94/NKG2A normalized to a fitted Rmax,CD94/NKG2A; CD94/NKG2A concentration 0.2 μM,0.037
same,binding of peptide-HLA-E complex to CD94/NKG2A normalized to a fitted Rmax,CD94/NKG2A; CD94/NKG2A concentration 0.4 μM,0.066
same,binding of peptide-HLA-E complex to CD94/NKG2A normalized to a fitted Rmax,CD94/NKG2A; CD94/NKG2A concentration 0.8 μM,0.115
same,binding of peptide-HLA-E complex to CD94/NKG2A normalized to a fitted Rmax,CD94/NKG2A; CD94/NKG2A concentration 1.6 μM,0.191
same,binding of peptide-HLA-E complex to CD94/NKG2A normalized to a fitted Rmax,CD94/NKG2A; CD94/NKG2A concentration 3.2 μM,0.302
same,binding of peptide-HLA-E complex to CD94/NKG2A normalized to a fitted Rmax,CD94/NKG2A; CD94/NKG2A concentration 6.4 μM,0.432
same,binding of peptide-HLA-E complex to CD94/NKG2A normalized to a fitted Rmax,CD94/NKG2A; CD94/NKG2A concentration 12.8 μM,0.558
same,binding of peptide-HLA-E complex to CD94/NKG2A normalized to a fitted Rmax,CD94/NKG2A; CD94/NKG2A concentration 25.6 μM,0.685
same,binding of peptide-HLA-E complex to CD94/NKG2A normalized to a fitted Rmax,CD94/NKG2A; CD94/NKG2A concentration 51.2 μM,0.819
same,binding of peptide-HLA-E complex to CD94/NKG2A normalized to a fitted Rmax,CD94/NKG2A; CD94/NKG2A concentration 102.4 μM,0.961
same,Binding of peptide-HLA-E complexes to CD94/NKG2A normalized to a theoretical Rmax,CD94/NKG2A; CD94/NKG2A analyte concentration 0.000 μM,0.006
same,Binding of peptide-HLA-E complexes to CD94/NKG2A normalized to a theoretical Rmax,CD94/NKG2A; CD94/NKG2A analyte concentration 0.100 μM,0.015
same,Binding of peptide-HLA-E complexes to CD94/NKG2A normalized to a theoretical Rmax,CD94/NKG2A; CD94/NKG2A analyte concentration 0.200 μM,0.023
same,Binding of peptide-HLA-E complexes to CD94/NKG2A normalized to a theoretical Rmax,CD94/NKG2A; CD94/NKG2A analyte concentration 0.400 μM,0.042
same,Binding of peptide-HLA-E complexes to CD94/NKG2A normalized to a theoretical Rmax,CD94/NKG2A; CD94/NKG2A analyte concentration 0.800 μM,0.074
same,Binding of peptide-HLA-E complexes to CD94/NKG2A normalized to a theoretical Rmax,CD94/NKG2A; CD94/NKG2A analyte concentration 1.600 μM,0.122
same,Binding of peptide-HLA-E complexes to CD94/NKG2A normalized to a theoretical Rmax,CD94/NKG2A; CD94/NKG2A analyte concentration 3.200 μM,0.193
same,Binding of peptide-HLA-E complexes to CD94/NKG2A normalized to a theoretical Rmax,CD94/NKG2A; CD94/NKG2A analyte concentration 6.400 μM,0.277
same,Binding of peptide-HLA-E complexes to CD94/NKG2A normalized to a theoretical Rmax,CD94/NKG2A; CD94/NKG2A analyte concentration 12.800 μM,0.357
same,Binding of peptide-HLA-E complexes to CD94/NKG2A normalized to a theoretical Rmax,CD94/NKG2A; CD94/NKG2A analyte concentration 25.600 μM,0.439
same,Binding of peptide-HLA-E complexes to CD94/NKG2A normalized to a theoretical Rmax,CD94/NKG2A; CD94/NKG2A analyte concentration 51.200 μM,0.524
same,Binding of peptide-HLA-E complexes to CD94/NKG2A normalized to a theoretical Rmax,CD94/NKG2A; CD94/NKG2A analyte concentration 102.400 μM,0.615
